Measured values published in ChEMBL document CHEMBL4406833 (Eur J Med Chem, 2019).
pIC50: −log10 of the molar value. Values after ≈ are worked out from the molar mass of the structure shown.

What was measured:
[1] = target: Indoleamine 2,3-dioxygenase 1 (Homo sapiens, UniProt P14902); experiment: Inhibition of IDO1 in human HeLa cells using L-tryptophan as substrate incubated for 48 hrs; format: cell-based
[2] = target: T1, Indoleamine 2,3-dioxygenase 2 (Homo sapiens, UniProt Q6ZQW0); experiment: Inhibition of N-terminal His-tagged human IDO2 expressed in Escherichia coli expression system
T1 sequence (Q6ZQW0 whole entry): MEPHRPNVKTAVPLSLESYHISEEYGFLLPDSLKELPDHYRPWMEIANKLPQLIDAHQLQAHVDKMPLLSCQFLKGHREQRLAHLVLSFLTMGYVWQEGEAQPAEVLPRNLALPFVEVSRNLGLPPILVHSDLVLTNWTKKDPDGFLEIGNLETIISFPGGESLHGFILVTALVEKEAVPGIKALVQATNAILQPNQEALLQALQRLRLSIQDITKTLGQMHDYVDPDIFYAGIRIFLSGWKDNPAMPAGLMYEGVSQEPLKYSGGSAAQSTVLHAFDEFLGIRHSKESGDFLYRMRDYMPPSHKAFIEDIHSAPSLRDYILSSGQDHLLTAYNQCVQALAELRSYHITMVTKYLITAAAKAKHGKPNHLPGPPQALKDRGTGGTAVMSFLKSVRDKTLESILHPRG

[3] = Apparent permeability across apical to basolateral side in human Caco2 cells upto 90 mins by LC-MS/MS analysis; format: ADME, cell-based; conditions: Caco-2
[4] = system: Lewis lung carcinoma cell line; experiment: Antimetastatic activity against LLC cells allografted in C57BL6 mouse assessed as inhibition of metastatic nodules in lung at 60 mg/kg, ig after 30 days by H and E staining based analysis relative to control; format: functional; conditions: po, 720 h
[5] = target: Tryptophan 2,3-dioxygenase (Homo sapiens, UniProt P48775); experiment: Inhibition of N-terminal His-tagged human TDO expressed in Escherichia coli expression system
[6] = Aqueous solubility of compound at 1 mg after 30 hrs by HPLC analysis; format: physicochemical
[7] = system: Lewis lung carcinoma cell line; experiment: Antimetastatic activity against LLC cells allografted in C57BL6 mouse assessed as number of metastatic nodules in lung at 60 mg/kg, ig after 30 days by H and E staining based analysis; format: functional
[8] = Toxicity in C57BL6 mouse allografted with Lewis cells assessed as increase in body weight at 60 mg/kg, ig measured every 3 days for 30 days; format: organism-based; conditions: in vivo, po, 720 h

Indoleamine 2,3-dioxygenase 1, sequence (P14902 whole entry): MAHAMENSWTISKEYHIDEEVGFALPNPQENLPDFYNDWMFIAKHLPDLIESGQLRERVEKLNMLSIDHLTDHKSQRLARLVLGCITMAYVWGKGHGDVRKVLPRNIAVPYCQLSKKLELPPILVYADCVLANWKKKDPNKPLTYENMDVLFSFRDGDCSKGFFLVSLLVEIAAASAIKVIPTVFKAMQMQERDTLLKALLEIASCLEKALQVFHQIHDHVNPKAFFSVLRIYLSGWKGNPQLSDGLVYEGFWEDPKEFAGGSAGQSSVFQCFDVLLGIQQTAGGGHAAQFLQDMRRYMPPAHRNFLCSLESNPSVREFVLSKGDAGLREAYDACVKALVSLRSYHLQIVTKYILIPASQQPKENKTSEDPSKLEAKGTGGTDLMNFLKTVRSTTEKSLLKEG
Tryptophan 2,3-dioxygenase, sequence (P48775 whole entry): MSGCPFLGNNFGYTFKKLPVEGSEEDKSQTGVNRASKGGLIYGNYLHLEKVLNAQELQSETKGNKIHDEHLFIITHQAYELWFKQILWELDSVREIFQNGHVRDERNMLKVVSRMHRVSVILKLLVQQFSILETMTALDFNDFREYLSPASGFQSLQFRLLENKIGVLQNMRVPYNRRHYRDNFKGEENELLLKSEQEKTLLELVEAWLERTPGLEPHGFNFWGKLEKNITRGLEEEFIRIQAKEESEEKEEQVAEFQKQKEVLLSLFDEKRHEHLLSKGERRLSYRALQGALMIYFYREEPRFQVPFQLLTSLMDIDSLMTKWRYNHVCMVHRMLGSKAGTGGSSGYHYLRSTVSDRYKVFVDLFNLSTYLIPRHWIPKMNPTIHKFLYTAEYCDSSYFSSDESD

**Q.** With `CCOP(=O)(NCCNc1nonc1/C(=N/O)Nc1ccc(F)c(Br)c1)c1ccccc1` (stereo not given) as the compound, how does the pIC50 [1] read?
**A.** The pIC50 was 6.88.

**Q.** With `CCOP(=O)(Cc1ccccc1)NCCNc1nonc1/C(=N/O)Nc1ccc(F)c(Br)c1` (stereo not given) as the compound, how does the pIC50 [1] read?
**A.** Its pIC50 is 6.92.

**Q.** With `NS(=O)(=O)NCCNc1nonc1C(=NO)Nc1ccc(F)c(Br)c1` [EPACADOSTAT] as the compound, how does the pIC50 [2] read?
**A.** Its pIC50 is 6.15.

**Q.** What about the Papp A→B at 1.5 h [3] of the same compound?
**A.** Its Papp A→B at 1.5 h is 3.1 ×10⁻⁶ cm/s.

**Q.** And the inhibition in vivo at 60 mg/kg [4]?
**A.** The inhibition in vivo at 60 mg/kg was 77%.

**Q.** And the pIC50 [5]?
**A.** Its pIC50 is < 5.00.

**Q.** And the solubility at 30 h [6]?
**A.** The solubility at 30 h was 130 µg/mL (≈ 297 µM).

**Q.** And the Activity [7]?
**A.** The Activity was 21.

**Q.** What about the Activity [8] of the same compound?
**A.** The Activity was “Toxic”.

**Q.** With `CCOP(=O)(Cc1cccc2ccccc12)NCCNc1nonc1/C(=N/O)Nc1ccc(F)c(Br)c1` (stereo not given) as the compound, how does the pIC50 [1] read?
**A.** The pIC50 was 6.90.
